Measurements reported in patent publication US20210371388A1, “Bicyclic Carboxamide with Exocyclic Urea Derivatives as Antivirals for the Treatment of HBV Infection” (Baruch S. Blumberg Institute, priority 2020, published 2021).

System: HBV replication in AML12HBV10 cells
Assay: Antiviral efficacy: HBV DNA in AML12HBV10 cell lysates by dot-blot hybridization
Type: cell-based
Conditions: Hepatitis B virus, AML12HBV10, 48 h, read-out: Antiviral activity (EC50), AML12HBV10 cells, 48 hours treatment, concentration that reduces the amount of HBV DNA by 50%
Experimental: The antiviral efficacy of the compounds of the disclosure, as presented in Table 2, were determined in AML12HBV10 cells. AML12HBV10 is an immortalized murine hepatocyte (AML12)-derived stable cell line that supports robust HBV replication in a tetracycline inducible manner (Xu et al.). The cells were seeded into 96 well plates at a density of 2×10^4 cells per well and cultured in DMEM/F12 media with 10% fetal bovine serum in the absence of tetracycline to allow pgRNA transcription and HBV DNA replication. One day after seeding, cells were left untreated or treated with a serial dilution of testing compounds, ranging from 50 μM to 0.39 μM, for 48 hours. Cells were then lysed by adding into each well of 100 μl lysis buffer containing 10 mM Tris-HCl (pH 7.6), 1 mM EDTA, 100 mM NaCl and 1% NP-40 and incubated at 37° C. for 30 minutes. Half amount (50 μλ) of cell lysate from each well was combined with equal volume of denaturing solution containing 0.5N NaOH and 1.5M NaCl. After 5 minute incubation, 100 μl of neutralization solution (1M Tris-HCl, pH 7.4, 1.5M NaCl) was added into each well. The denatured cell lysates (totally 200 μl) were applied onto Nylon membrane using 96-well dot-blot manifold (Biorad). HBV DNA in the cell lysates were determined by dot-blot hybridization with alpha-^32P-UTP-labelled riboprobe specific for HBV minus strand DNA. The antiviral efficacy of a compound of the disclosure was expressed as the concentration that reduces the amount of HBV DNA by 50% (EC50).

Row | Compound | EC50
1 | O=C1CCN(C(=O)Nc2ccc(F)c(Cl)c2)c2ccccc21 [Entry 1] | 1.32 µM
2 | O=C1CCN(C(=O)Nc2ccc(F)c(Cl)c2)[C@H]2CCCC[C@H]12 [Entry 3] | 0.42 µM
3 | O=C(Nc1ccc(F)c(Cl)c1)N1CCc2ccccc21 [Entry 4] | 0.36 µM
4 | O=C(Nc1ccc(F)c(Cl)c1)N1CCOc2ccccc21 [Entry 5] | 0.52 µM
5 | O=C(Nc1ccc(F)c(Cl)c1)N1CCCCc2ccccc21 [Entry 6] | 12.3 µM
6 | O=C(Nc1ccc(F)c(Cl)c1)N1CCCc2ccccc21 [Entry 8] | 1.55 µM
7 | O=C(Nc1ccc(F)c(Cl)c1)N1CCNc2ccccc21 [Entry 9] | 0.5 µM
8 | O=C1CCCN(C(=O)Nc2ccc(F)c(Cl)c2)c2ccccc21 [Entry 10] | ≥ 10 µM
9 | Cc1ccc2c(c1)CCN2C(=O)Nc1ccc(F)c(Cl)c1 [Entry 11] | 5.26 µM
10 | O=C(Nc1ccc(F)c(Cl)c1)N1CCc2cc(F)c(F)cc21 [Entry 12] | 2.07 µM
11 | O=C1CCN(C(=O)Nc2cc(F)c(F)c(F)c2)[C@H]2CCCC[C@@H]12 [Entry 13] | 2.41 µM
12 | O=C1CCN(C(=O)Nc2cc(F)c(F)c(F)c2)[C@H]2CCCC[C@H]12 [Entry 14] | 3.46 µM
13 | CC1(O)CCN(C(=O)Nc2ccc(F)c(Cl)c2)C2CCCCC21 (centres unmarked) [Entry 15] | 6.4 µM
14 | O=C(Nc1cc(F)c(F)c(F)c1)N1CCC(O)C2CCCCC21 (centres unmarked) [Entry 19] | ≥ 10 µM
15 | O=C1CCN(C(=O)Nc2cc(F)c(F)c(Cl)c2)C2CCCCC12 (centres unmarked) [Entry 20] | 2.4 µM
16 | O=C(Nc1cc(F)c(F)c(F)c1)N1CCNc2ccccc21 [Entry 21] | 0.63 µM
17 | O=C1CN(C(=O)Nc2cc(F)c(F)c(F)c2)c2ccccc2N1 [Entry 22] | ≥ 10 µM
18 | O=C1CN(C(=O)Nc2ccc(F)c(Cl)c2)c2ccccc2N1 [Entry 23] | ≥ 10 µM
19 | O=C(Nc1ccc(F)c(Cl)c1)N1CCN(CCCCF)c2ccccc21 [Entry 24] | ≥ 10 µM
20 | O=C(Nc1cc(F)c(F)c(F)c1)N1CCN(CC(F)(F)F)c2ccccc21 [Entry 25] | ≥ 10 µM
21 | O=C(Nc1cc(F)c(F)c(F)c1)N1CCN(CCC(F)(F)F)c2ccccc21 [Entry 26] | ≥ 10 µM
22 | O=C(Nc1cc(F)c(F)c(F)c1)N1CCN(C(=O)c2ccccn2)c2ccccc21 [Entry 27] | ≥ 10 µM
23 | O=C(Nc1cc(F)c(F)c(F)c1)N1CCN(C(=O)c2ccc(C(F)(F)F)cc2)c2ccccc21 [Entry 28] | ≥ 10 µM
24 | CC(=O)N1CCN(C(=O)Nc2cc(F)c(F)c(F)c2)c2ccccc21 [Entry 29] | ≥ 10 µM
25 | CC(C)(C)C(=O)N1CCN(C(=O)Nc2cc(F)c(F)c(F)c2)c2ccccc21 [Entry 30] | ≥ 10 µM
26 | CC(C)C(=O)N1CCN(C(=O)Nc2cc(F)c(F)c(F)c2)c2ccccc21 [Entry 31] | 4.71 µM
27 | O=C(Nc1cc(F)c(F)c(F)c1)N1CCN(C(=O)c2ccccc2)c2ccccc21 [Entry 32] | ≥ 10 µM

Row | Compound | EC50
28 | O=C(Nc1cc(F)c(F)c(Cl)c1)N1CCNc2ccccc21 [Entry 33] | 0.93 µM
29 | O=C(Nc1cc(F)c(F)c(F)c1)N1CCN(S(=O)(=O)c2ccccc2)c2ccccc21 [Entry 34] | ≥ 10 µM
30 | CCCCOC(=O)N1CCN(C(=O)Nc2cc(F)c(F)c(F)c2)c2ccccc21 [Entry 35] | ≥ 10 µM
31 | CC(C)COC(=O)N1CCN(C(=O)Nc2cc(F)c(F)c(F)c2)c2ccccc21 [Entry 36] | ≥ 10 µM
32 | O=C(Nc1cc(F)c(F)c(F)c1)N1CCN(C(=O)OCc2ccccc2)c2ccccc21 [Entry 37] | ≥ 10 µM
33 | O=C(Nc1cc(F)c(F)c(F)c1)N1CCNC2CCCCC21 (centres unmarked) [Entry 38] | ≥ 10 µM
34 | O=C(Nc1ccc(F)c(Cl)c1)N1CCNC2CCCCC21 (centres unmarked) [Entry 40] | ≥ 10 µM
35 | O=C(Nc1ccc(F)c(Cl)c1)N1CCOC2CCCCC21 (centres unmarked) [Entry 41] | ≥ 10 µM
36 | O=C(Nc1ccc(F)c(Cl)c1)N1CCN(C(=O)Nc2ccc(F)c(Cl)c2)[C@H]2CCCC[C@@H]21 [Entry 42] | ≥ 10 µM
37 | CC(C)(C)OC(=O)N1CCN(C(=O)Nc2ccc(F)c(Cl)c2)[C@H]2CCCC[C@@H]21 [Entry 43] | ≥ 10 µM
38 | CC(C)(C)OC(=O)N1CCN(C(=O)Nc2ccc(F)c(Cl)c2)[C@@H]2CCCC[C@@H]21 [Entry 44] | ≥ 10 µM
39 | O=C(Nc1ccc(F)c(Cl)c1)N1CCCC2CCCCC21 (centres unmarked) [Entry 46] | ≥ 10 µM
40 | O=C(Nc1ccc(F)c(Cl)c1)N1CCN[C@H]2CCCC[C@H]21 [Entry 47] | ≥ 10 µM
41 | O=C(Nc1ccc(F)c(Cl)c1)N1CCN(C(=O)Nc2ccc(F)c(Cl)c2)c2ccccc21 [Entry 48] | 0.75 µM
42 | O=C(Nc1ccc(F)c(Cl)c1)N1CC2(CCCC2)Nc2ccccc21 [Entry 49] | ≥ 10 µM
43 | CC1(C)CN(C(=O)Nc2ccc(F)c(Cl)c2)c2ccccc2N1 [Entry 50] | ≥ 10 µM
44 | CC1CN(C(=O)Nc2ccc(F)c(Cl)c2)c2ccccc2N1 (centres unmarked) [Entry 51] | ≥ 10 µM
45 | O=C(Nc1ccc(F)c(Cl)c1)N1CC(c2ccccc2)Nc2ccccc21 (centres unmarked) [Entry 52] | ≥ 10 µM
46 | O=C(Nc1ccc(F)c(Cl)c1)N1CCS(=O)(=O)c2ccccc21 [Entry 53] | ≥ 10 µM
47 | CC(C)(C)NC(=O)N1CCN(C(=O)Nc2ccc(F)c(Cl)c2)c2ccccc21 [Entry 54] | ≥ 10 µM
48 | O=C1CN(C(=O)Nc2ccc(F)c(Cl)c2)C2CCCCC2N1 (centres unmarked) [Entry 56] | ≥ 10 µM
49 | O=C(Nc1cccc(Cl)c1)N1CCN(C(=O)Nc2ccc(F)c(Cl)c2)c2ccccc21 [Entry 57] | 0.65 µM
50 | O=C(Nc1cc(Cl)ccc1F)N1CCNc2ccccc21 [Entry 58] | 0.77 µM
51 | O=C(Nc1cc(F)c(F)c(F)c1)N1CCN(C(=O)Nc2cc(F)c(F)c(F)c2)c2ccccc21 [Entry 59] | 1.12 µM
52 | NC(=O)C1CN(C(=O)Nc2ccc(F)c(Cl)c2)c2ccccc2N1 (centres unmarked) [Entry 62] | ≥ 10 µM
53 | O=C(Nc1ccc(F)c(Cl)c1)N1c2ccccc2NCC1c1ccccc1 (centres unmarked) [Entry 63] | 0.78 µM
54 | CC1CNc2ccccc2N1C(=O)Nc1ccc(F)c(Cl)c1 (centres unmarked) [Entry 64] | 4.38 µM

Row | Compound | EC50
55 | CC1CN(C(=O)Nc2ccc(F)c(Cl)c2)c2ccccc2N1C(=O)Nc1ccc(F)c(Cl)c1 (centres unmarked) [Entry 65] | 1.3 µM
56 | CC(C)C1CN(C(=O)Nc2ccc(F)c(Cl)c2)c2ccccc2N1C(=O)NCc1ccc(F)c(F)c1 (centres unmarked) [Entry 66] | 1.66 µM
57 | O=C(Nc1ccc(F)c(Cl)c1)N1CC(CN2CCOCC2)N(C(=O)Nc2ccc(F)c(Cl)c2)c2ccccc21 (centres unmarked) [Entry 67] | 2.03 µM
58 | O=C(Nc1ccc(F)c(Cl)c1)N1CC(CN2CCC(O)CC2)N(C(=O)Nc2ccc(F)c(Cl)c2)c2ccccc21 (centres unmarked) [Entry 68] | ≥ 10 µM
59 | O=C(Nc1ccc(F)c(Cl)c1)N1CC(CN2CCC(F)(F)C2)N(C(=O)Nc2ccc(F)c(Cl)c2)c2ccccc21 (centres unmarked) [Entry 69] | 0.65 µM
60 | CN1CCN(CC2CN(C(=O)Nc3ccc(F)c(Cl)c3)c3ccccc3N2C(=O)Nc2ccc(F)c(Cl)c2)CC1 (centres unmarked) [Entry 70] | ≥ 10 µM
61 | O=C(Nc1ccc(F)c(Cl)c1)N1CC(CN2CCCC(F)(F)C2)N(C(=O)Nc2ccc(F)c(Cl)c2)c2ccccc21 (centres unmarked) [Entry 72] | 1.23 µM
62 | O=C1CC(c2ccccc2)N(C(=O)Nc2ccc(F)c(Cl)c2)c2ccccc21 (centres unmarked) [Entry 73] | 2.89 µM
63 | O=C(Nc1ccc(F)c(Cl)c1)N1CC(CN2CCC(F)(F)C2)Nc2ccccc21 (centres unmarked) [Entry 76] | 5.09 µM
64 | O=C(Nc1ccc(F)c(Cl)c1)N1c2ccccc2NCC1CN1CCC(F)(F)CC1 (centres unmarked) [Entry 77] | 0.28 µM
65 | O=C(Nc1ccc(F)c(Cl)c1)N1CC(CN2CCC(F)(F)CC2)Nc2ccccc21 (centres unmarked) [Entry 78] | 4.32 µM
66 | O=C(Nc1ccc(F)c(Cl)c1)N1c2ccccc2NCC1CN1CCC(F)(F)C1 (centres unmarked) [Entry 79] | 1.7 µM
67 | CC(C)C1CNc2ccccc2N1C(=O)Nc1ccc(F)c(Cl)c1 (centres unmarked) [Entry 81] | 3.5 µM
68 | O=C(Nc1ccc(F)c(Cl)c1)N1CCNc2cc(F)c(F)cc21 [Entry 82] | 0.61 µM
69 | O=C(Nc1ccc(F)c(Cl)c1)N1CCN(C(=O)Nc2ccc(F)c(Cl)c2)c2cc(F)c(F)cc21 [Entry 83] | 1.18 µM
70 | O=C1CC(c2ccc(F)cc2)N(C(=O)Nc2ccc(F)c(Cl)c2)c2ccccc21 (centres unmarked) [Entry 84] | 2.37 µM
71 | O=C1CCN(C(=O)Nc2ccc(F)c(Cl)c2)c2ccc(Br)cc21 [Entry 85] | ≥ 10 µM
72 | O=C1CCN(C(=O)Nc2ccc(F)c(Cl)c2)c2ccc(Cl)cc21 [Entry 86] | 4.83 µM
73 | O=C(Nc1ccc(F)c(Cl)c1)N1CCNc2cc(OCc3ccccc3)ccc21 [Entry 87] | 2.82 µM
74 | O=C(Nc1ccc(F)c(Cl)c1)N1C(c2ccccc2)CN[C@H]2CCCC[C@@H]21 (some centres unmarked) [Entry 88] | ≥ 10 µM
75 | O=C(Nc1ccc(F)c(Cl)c1)N1c2ccccc2NCC1CN1CCOCC1 (centres unmarked) [Entry 89] | 7.3 µM
76 | COC(=O)C1COCCN1CC1CNc2ccccc2N1C(=O)Nc1ccc(F)c(Cl)c1 (centres unmarked) [Entry 90] | 2.2 µM
77 | O=C(O)C1COCCN1CC1CNc2ccccc2N1C(=O)Nc1ccc(F)c(Cl)c1 (centres unmarked) [Entry 91] | ≥ 10 µM
78 | O=C(Nc1ccc(F)c(Cl)c1)N1CC(CN2CCOCC2)Nc2ccccc21 (centres unmarked) [Entry 96] | ≥ 10 µM
79 | COC(=O)[C@H]1CC(F)(F)CN1CC1CNc2ccccc2N1C(=O)Nc1ccc(F)c(Cl)c1 (some centres unmarked) [Entry 97] | ≥ 10 µM
80 | O=C(O)[C@H]1CC(F)(F)CN1CC1CNc2ccccc2N1C(=O)Nc1ccc(F)c(Cl)c1 (some centres unmarked) [Entry 98] | ≥ 10 µM
